According to patent US20200289482A1, “CYSTIC FIBROSIS TRANSMEMBRANE CONDUCTANCE REGULATOR MODULATORS FOR TREATING AUTOSOMAL DOMINANT POLYCYSTIC KIDNEY DISEASE” (The Johns Hopkins University, priority 2017, published 2020):

Experiments:
Hsp27 [1] = experiment: Western blot of Hsp27 in kidney tissue lysates; assay type: in vivo, mouse; conditions: cyst induced pkd−/− mice, VX-809 30 mg/kg BW
Procedure: FIG. 7A, FIG. 7B, FIG. 7C, FIG. 7D, FIG. 7E, and FIG. 7F show chaperone expression is altered in mice by VX-809. (FIG. 7A-FIG. 7B) Representative Western blot images of HSP27, 70, 90 and HSP40 in lysates of kidney tissue from no cyst induced (ND), cyst induced with Doxycycline (D) or cyst induced pkd−/− mice treated with VX-809 (D+VX-809) 30 mg/kg BW. (FIG. 7C, FIG. 7D, FIG. 7E, and FIG. 7F) Columns represent averages±standard errors of HSP27, 70, 90 and HSP40 expression. Data were analyzed by non-parametric t-test. n=4 for each treated and control groups. Black lines between lanes represent representative experiments from the same gel. *P<0.05; **P<0.01; To facilitate their growth in the kidney, cysts have developed an altered network of proteins that most likely serves to protect them from stress (34). Next, it was determined whether VX-809 would alter the levels of Hsps in pkd−/− mice and in PN cells. […] Hsp 27, 70 and 90 are all elevated in cystic kidneys compared to normal controls. […] There is no change in Hsp 40. […] Both sets of data are consistent with an alteration in the heat shock response to cyst growth.

Hsp27 [2] = experiment: Western blot of Hsp27 in PN cells; assay type: cell-based, mouse; conditions: VX-809 10 μM 16 h
Procedure: (§1) FIG. 8A, FIG. 8B, FIG. 8C, FIG. 8D, FIG. 8E, FIG. 8F, FIG. 8G, and FIG. 8H show chaperone expression is altered in PH and PN cells by VX-809. (FIG. 8A) Western blot showing expression of HSP27, 70 and HSP 90 in VX-809 treated or control PN cells. […] (FIG. 8E). Western blot of HSP27, 70 and 90 in PH vs. PN cells. […] Whereas, Hsp70 is higher in PH vs. PN cells. Data were analyzed by non-parametric t test. Experiment was repeated 4-5 times. Cells were grown in 10-cm culture dishes at permissive conditions (33° C.) with γ-interferon in culture media. Cells were then transferred to non-permissive conditions at 37° C., γ-interferon free culture media and evaluated at full confluence. At day four, cells were treated with VX-809 (10 μM) for 16 h and harvested on fifth day for assay. *P<0.05., **P<0.01, ***P<0.001, ****P<0.0001; To facilitate their growth in the kidney, cysts have developed an altered network of proteins that most likely serves to protect them from stress (34). Next, it was determined whether VX-809 would alter the levels of Hsps in pkd−/− mice and in PN cells. […] Hsp 27, 70 and 90 are all elevated in cystic kidneys compared to normal controls. […] There is no change in Hsp 40. […] Both sets of data are consistent with an alteration in the heat shock response to cyst growth.

Hsp70 = experiment: Western blot of Hsp70 in PN cells; assay type: cell-based, mouse; conditions: VX-809 10 μM 16 h
Procedure: as §1

Hsp90 = experiment: Cycloheximide chase, disappearance of Hsp90 in PN cells; assay type: cell-based, mouse; conditions: VX-809 10 μM with cycloheximide 25 μM
Procedure: FIG. 9A, FIG. 9B, FIG. 9C, FIG. 9D, FIG. 9E, FIG. 9F, FIG. 9G, and FIG. 9H show Hsp27, HSp70, and Hsp90 expression in PN cells treated with VX-809 and/or cycloheximide. (A) Pkd1 null (PN) cells were treated with VX-809 (10 μM) and/or with cycloheximide (25 μM) for indicated time points before being harvested for the assay. (FIG. 9A) Western blot showing expression of Hsp27, Hsp70, and Hsp90 in VX-809-(16 h), cycloheximide-treated, or control PN cells. ((FIG. 9B. (FIG. 9C, and (FIG. 9D) Columns represent averages±standard errors of Hsp27, Hsp70, and Hsp90 expression in cells treated with VX-809 and/or cycloheximide. ((FIG. 9E) Western blot showing expression of Hsp27, Hsp70, and Hsp90 in PN cells treated with VX-809+cycloheximide or control PN cells. ((FIG. 9F, (FIG. 9G, and (FIG. 9H) Columns represent averages±standard errors of Hsp27, Hsp70, and Hsp90 expression in cells treated only with cycloheximide or in control PN cells. Data were analyzed by non-parametric t-test. The experiments were repeated 3-5 times. *P<0.05, **P<0.01;
To gain more insight into the mechanism whereby VX-809 alters Hsp protein levels, translation was inhibited by using cycloheximide (35) and the disappearance of the three Hsps was monitored. […] Hsp 90 was reduced by approximately 25%, and Hsp27 was unchanged.

GRP78 = experiment: Western blot of ER stress marker GRP78 in kidney tissue; assay type: in vivo, mouse; conditions: cyst induced pkd−/− mice, VX-809 30 mg/kg BW
Procedure: FIG. 11A. FIG. 11B, FIG. 11C, FIG. 11D, and FIG. 11E show expression of ER stress markers GRP78, ErO1, and GADD in Pkd1^−/− mice treated with VX-809. (FIG. 11A & FIG. 11D) Representative Western blot images of GRP78, ErO1, and GADD in lysates of kidney tissue from no cyst induced (ND), cyst induced with doxycycline (D) or cyst induced pkd−/− mice treated with VX-809 (D+VX-809) 30 mg/kg BW. (FIG. 11B, FIG. 11C and FIG. 11E) Columns represent averages±standard errors of GRP78, ErO1, and GADD153 expression. Data were analyzed by non-parametric t-test. n=4 for each treated and control groups. Black lines between lanes represent representative experiments from the same gel but loaded in different lanes. **P<0.01, ***P<0.001;
Given that VX-809 alters an ensemble of Hsps, it was evaluated whether VX-809 alters proteins associated with ER stress. To address this question, the levels of three ER stress-associated proteins were measured, 78-kDa glucose-regulated protein (GRP78), ER oxidoreductin 1 (Ero1) and DNA damage-inducible protein 3 (GADD153), also known as C/EBP homologous protein (CHOP) (37). The results are depicted in FIG. 11 show no changes in GRP78 or Ero1 in response to VX-809.

CFTR = CFTR (Mus musculus, UniProt P26361); experiment: Confocal microscopy localization of CFTR; assay type: cell-based; design: endogenous in cells; conditions: VX-809 treated vs control cells; ER, Golgi and PM markers
CFTR, sequence (P26361 whole entry): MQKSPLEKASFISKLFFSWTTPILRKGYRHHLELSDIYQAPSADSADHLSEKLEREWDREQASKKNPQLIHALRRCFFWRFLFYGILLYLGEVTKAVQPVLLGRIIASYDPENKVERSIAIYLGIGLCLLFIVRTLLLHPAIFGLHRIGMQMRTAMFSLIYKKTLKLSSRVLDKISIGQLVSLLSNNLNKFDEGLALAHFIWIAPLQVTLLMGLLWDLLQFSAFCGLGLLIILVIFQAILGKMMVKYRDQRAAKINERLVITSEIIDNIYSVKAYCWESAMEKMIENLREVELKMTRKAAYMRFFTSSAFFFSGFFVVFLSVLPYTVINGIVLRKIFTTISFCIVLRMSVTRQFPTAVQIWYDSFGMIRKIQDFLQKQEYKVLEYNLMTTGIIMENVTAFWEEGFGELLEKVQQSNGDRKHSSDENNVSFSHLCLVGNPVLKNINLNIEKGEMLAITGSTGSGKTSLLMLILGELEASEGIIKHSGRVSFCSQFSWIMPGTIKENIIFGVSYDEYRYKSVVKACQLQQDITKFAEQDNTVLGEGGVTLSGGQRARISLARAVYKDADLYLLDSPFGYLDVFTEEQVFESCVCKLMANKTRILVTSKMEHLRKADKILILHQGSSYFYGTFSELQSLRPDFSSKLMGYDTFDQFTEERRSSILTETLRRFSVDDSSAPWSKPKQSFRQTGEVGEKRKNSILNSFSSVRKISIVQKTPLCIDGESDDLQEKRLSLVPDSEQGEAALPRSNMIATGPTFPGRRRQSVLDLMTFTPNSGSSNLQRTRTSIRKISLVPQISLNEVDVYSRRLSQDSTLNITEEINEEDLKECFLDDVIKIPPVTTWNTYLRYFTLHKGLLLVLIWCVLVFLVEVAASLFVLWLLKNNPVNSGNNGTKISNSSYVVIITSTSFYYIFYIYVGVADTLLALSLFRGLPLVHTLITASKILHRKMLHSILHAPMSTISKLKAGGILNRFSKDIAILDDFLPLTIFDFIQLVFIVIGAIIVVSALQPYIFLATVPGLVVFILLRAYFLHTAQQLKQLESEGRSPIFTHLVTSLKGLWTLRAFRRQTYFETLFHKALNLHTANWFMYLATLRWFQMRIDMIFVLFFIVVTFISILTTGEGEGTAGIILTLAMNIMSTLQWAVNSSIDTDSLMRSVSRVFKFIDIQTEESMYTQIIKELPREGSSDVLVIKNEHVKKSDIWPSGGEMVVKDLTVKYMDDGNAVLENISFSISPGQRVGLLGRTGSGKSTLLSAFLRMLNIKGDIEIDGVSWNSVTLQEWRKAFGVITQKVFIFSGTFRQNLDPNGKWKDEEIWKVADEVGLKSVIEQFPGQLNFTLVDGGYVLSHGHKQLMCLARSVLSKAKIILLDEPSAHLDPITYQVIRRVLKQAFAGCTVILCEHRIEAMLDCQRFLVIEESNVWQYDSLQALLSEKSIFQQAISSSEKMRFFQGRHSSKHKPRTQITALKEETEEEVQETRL
Source text: FIG. 18A and FIG. 18B show images of confocal microscopy localization studies of CFTR and localization markers in control and treated cells (FIG. 18A) and graphs showing Pearson's correlation coefficient for CFTR and localization markers in control and VX-809 treated cells (FIG. 18B).
The localization of PC2 and CFTR in control cells was compared to the localization of PC2 and CFTR localization in VX-809 treated cells.

lumacaftor [VX-809]
Hsp27 expression in kidneys (Hsp27 [1]): significantly less expression
Hsp27 expression in PN cells (Hsp27 [2]): reduced expression
Hsp70 expression in PN cells (Hsp70): reduced expression
Hsp 90 reduction over the 8-h period (Hsp90): approximately 25%
GRP78 expression (GRP78): no changes
localization of CFTR (CFTR): statistically significant move of CFTR from the ER to Basolateral and Apical Membrane
